Experimental data reported in patent US20230013419A1, “ANALOGUES OF 3-(5-METHYL-1,3-THIAZOL-2-YL)-N-{(1R)-1-[2-(TRIFLUORO-METHYL)PYRIMIDIN-5-YL]ETHYL}BENZAMIDE” (Bayer Aktiengesellschaft, priority 2019, published 2023).
In brackets after ≈: the same amount, converted by molar mass. Several values for one entry are separate records, joined by “and”; a condition that tells them apart may be missing. Equal values may be shown once.

Assays:
human P2X3 receptor = target: T1, human P2X3 receptor (Homo sapiens, UniProt P56373); experiment: Cellular in vitro assay for determination of P2X3 receptor activity (CHO cells, photina luminescence, agonist alpha-beta-methylene-ATP); type: cell-based; conditions: antagonist activity at human P2X3 receptors, recombinant CHO cells, alpha-beta-methylene-ATP at EC50; read-out: Target IC50
T1 construct: expressed in transfected cells; host or cells: CHO (Chinese hamster ovary) cells, stably co-transfected with mitochondrial photina
T1 sequence (P56373 1-397): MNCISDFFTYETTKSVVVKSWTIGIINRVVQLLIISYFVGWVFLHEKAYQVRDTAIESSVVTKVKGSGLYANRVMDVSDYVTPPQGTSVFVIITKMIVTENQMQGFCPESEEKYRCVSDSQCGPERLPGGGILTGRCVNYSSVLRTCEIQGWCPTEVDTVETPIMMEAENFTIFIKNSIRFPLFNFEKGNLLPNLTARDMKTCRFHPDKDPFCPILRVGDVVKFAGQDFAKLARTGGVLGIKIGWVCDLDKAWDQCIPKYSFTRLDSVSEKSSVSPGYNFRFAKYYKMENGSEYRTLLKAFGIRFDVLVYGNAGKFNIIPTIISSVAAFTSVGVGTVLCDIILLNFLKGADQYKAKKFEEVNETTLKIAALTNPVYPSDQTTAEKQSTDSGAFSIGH
Description: Cellular In Vitro Assay for Determination of P2X3 Receptor Activity
The determination of antagonistic activity at the P2X3 receptor of the compounds of the invention was performed by use of a recombinant cell line. These cell line derives originally from the Chinese hamster ovary (CHO) cell line (Tjio J. H.; Puck T. T., 1958, J. Exp. Med. 108: 259-271). The cell line is stably transfected with the human P2X3 receptor and a calcium-sensitive photoprotein, mitochondrial photina, which, after reconstitution with the cofactor coelenterazine, emits light in dependence of calcium binding [Bovolenta S, Foti M, Lohmer S, Corazza S., J Biomol Screen. 2007 August; 12(5):694-704]. The strength of the photina luminescence signal corresponds to the level of receptor activation upon agonist binding. An inhibitor would decrease the signal depending on its potency and concentration. Bioluminescence was detected using a suitable luminometer [Milligan G, Marshall F, Rees S, Trends in Pharmacological Sciences 17, 235-237 (1996)].
On the day before the assay, the cells are plated out in culture medium (DMEM/F12 (PAN, P04-41451), 10% FCS) in 384-well microtiter plates and kept in a cell incubator (96% humidity, 5% v/v CO2, […]). On the day of the assay medium is replaced by 2 mM Ca-tyrode buffer (20 mM HEPES, 130 mM NaCl, 5 mM KCl, 5 mM NaHCO3, 2 mM MgCl2, pH 7.4) containing 5 μg/ml coelenterazine. Plates are incubated for 3 hours at 37° C. (96% humidity, 5% v/v CO2). After incubation the test substances in various concentrations are placed for 10 minutes in the wells of the microtiter plate before the agonist alpha-beta-methylene-ATP at EC50 concentration is added. The resulting light signal is measured immediately in the luminometer.
The examples were tested in quadruples per plate and mean values were used to determine IC50 values at the human P2X3 receptors and percentage of maximal inhibition.

[1] = In vitro metabolic stability in human liver microsomes; type: in vitro ADME; conditions: for CLblood: hepatic in vivo blood clearance calculated from half-life in human liver microsomes, 1 μM, well-stirred model; for metabolic stability compared to example 11 of WO2016/091776 A1: human liver microsomes; for Fmax: maximal oral bioavailability calculated from human liver microsome clearance
Description: Examples were tested for its metabolic stability in human liver microsomes. Examples were measured one or more times. When measured more than once, data from metabolic stability assays represent average values or median values calculated utilizing data sets obtained from testing of one or more synthetic batch.
In vitro metabolic stability was determined by incubating a solution of test compounds in dimethylsulfoxide (DMSO) and acetonitrile at 1 μM in a suspension of liver microsomes in 100 mM phosphate buffer, pH7.4 (NaH2PO4×H2O+Na2HPO4×2H2O) and at a protein concentration of 0.5 mg/mL at 37° C. The microsomes were activated by adding a co-factor mix containing 8 mM Glucose-6-Phosphat, 4 mM MgCl2; 0.5 mM NADP and 1 IU/ml G-6-P-Dehydrogenase in phosphate buffer, pH 7.4. The metabolic assay was started shortly afterwards by adding the test compound to the incubation at a final volume of 1 mL. Organic solvent was limited to ≤0.01% dimethylsulfoxide (DMSO) and ≤1% acetonitril. During incubation, the microsomal suspensions were continuously shaken at 580 rpm and aliquots were taken at 2, 8, 16, 30, 45 and 60 min, to which equal volumes of cold methanol were immediately added. Samples were frozen at −20° C. over night, subsequently centrifuged for 15 minutes at 3000 rpm and the supernatant was analyzed with an Agilent 1200 HPLC-system with LCMS/MS detection.
The half-life of a test compound was determined from the concentration-time plot. From the half-life the intrinsic clearances were calculated. Together with the additional parameters liver blood flow, specific liver weight and microsomal protein content the hepatic in vivo blood clearance (CL) and the maximal oral bioavailability (Fmax) were calculated for the different species. The hepatic in vivo blood clearance (CLblood) and the maximal oral bioavailability (Fmax) was calculated using the following formulae: CL′intrinsic [ml/(min*kg)]=kel [1/min]/((mg protein/volume of incubation [ml])*fu,inc)*(mg protein/liver weight [g])*(specific liver weight [g liver/kg body weight]); CLblood well-stirred [L/(h*kg)]=(QH [L/(h*kg)]*fu,blood*CL′intrinsic [L/(h*kg)])/(QH [L/(h*kg)]+fu,blood*CL′intrinsic [L/(h*kg)]); Fmax=1−CLblood/QH and using the following parameter values: QH (Liver blood flow): 1.32 L/h/kg (human), 2.1 L/h/kg (dog), 4.2 L/h/kg (rat); specific liver weight: 21 g/kg (human), 39 g/kg (dog), 32 g/kg (rat); microsomal protein content: 40 mg/g. fu,inc and fu,blood is taken as 1 with fu,inc being the unbound fraction (ie the non-protein bound fraction) in the incubation experiment, and fu,blood being the unbound fraction in blood.

[2] = High throughput aqueous solubility in phosphate buffer pH 6.5; type: physicochemical; conditions: for solubility at 24 h: aqueous buffer, kinetic from dmso stock, phosphate buffer pH 6.5, 1% DMSO, 24 hrs at room temperature; for solubility compared to example 11 of WO2016/091776 A1: aqueous, pH 6.5
Description: Examples were tested for its solubility in aqueous media (pH 6.5). Examples were synthesized one or more times in accordance with the above-described protocols. When synthesized more than once, data from solubility assays represent average values or median values calculated utilizing data sets obtained from testing of one or more synthetic batch.
The high throughput screening method to determine aqueous drug solubility is based on Thomas Onofrey and Greg Kazan, Performance and correlation of a 96-well high throughput screening method to determine aqueous drug solubility, Millipore Corporation Application Note, 2003; Lit. No. AN1731EN00.
The assay was run in a 96-well plate format. Each well was filled with an individual compound.
All pipetting steps were performed using a robot platform.
100 μl of a 10 mmolar solution of drug in DMSO were concentrated by vacuum centrifugation and resolved in 10 μl DMSO. 990 μl phosphate buffer pH 6.5 were added. The content of DMSO amounts to 1%. The multititer plate was put on a shaker and mixed for 24 hrs at room temperature. 150 μl of the suspension were transferred to a filtration plate. […] A second microtiter plate with 20 μl of a 10 mM solution of drug in DMSO served for calibration. Two concentrations ([…]) were prepared by dilution in DMSO/water 1:1 and used for calibration. Filtrate and calibration plates were quantified by HPLC-MS/MS.
Chromatographic conditions were as follows:
HPLC column: Ascentis Express C18 4.6×30 mm 2.7 μm
Mobile phase: A: Water/0.05% HCOOH • B: Acetonitrile/0.05% HCOOH • 0 min→95% A 5% B • 0.75 min→5% A 95% B • 2.75 min→5% A 95% B • 2.76 min→95% A 5% B • 3 min→95% A 5% B
The areas of sample- and calibration injections were determined by using mass spectrometry software (AB SCIEX: Discovery Quant 2.1.3. and Analyst 1.6.1). The solubility value was obtained by interpolation from the calibration curve.

IC50 (human P2X3 receptor) [nM]	CLblood [1]	Fmax [1]	solubility at 24 h [2] [µg/mL]	solubility compared to example 11 of WO2016/091776 A1 [2]	Compound	metabolic stability compared to example 11 of WO2016/091776 A1 [1]
5.1	0.017 mL/min/kg	100%	96.5 (≈ 194 µM)	significantly improved solubility	Cc1cnc(-c2cc(O[C@@H](CO)CCO)cc(C(=O)N[C@H](C)c3cnc(C(F)(F)F)nc3)c2)s1 [Example 2, 3-{[(2R)-1,4-dihydroxybutan-2-yl]oxy}-5-(5-methyl-1,3-thiazol-2-yl)-N-{(1R)-1-[2-(trifluoromethyl)pyrimidin-5-yl]ethyl}benzamide]	significantly improved metabolic stability
12	0.017 mL/min/kg	100%	1190 (≈ 2330 µM)	significantly improved solubility	Cc1cnc(-c2cc(O[C@@H](CO)CC(=O)O)cc(C(=O)N[C@H](C)c3cnc(C(F)(F)F)nc3)c2)s1 [Example 3, (3R)-4-hydroxy-3-[3-(5-methyl-1,3-thiazol-2-yl)-5-({(1R)-1-[2-(trifluoromethyl)-pyrimidin-5-yl]ethyl}carbamoyl)phenoxy]butanoic acid]	significantly improved metabolic stability
	8.67 mL/min/kg and 4.5 mL/min/kg	61% and 79%	2.9 (≈ 6.06 µM)		Cc1cnc(-c2cc(O[C@@H]3CCOC3)cc(C(=O)N[C@H](C)c3cnc(C(F)(F)F)nc3)c2)s1 [example 11 of WO2016/091776 A1, 3-(5-Methyl-1,3-thiazol-2-yl)-5-[(3R)-tetrahydrofuran-3-yloxy]-N-{(1R)-1-[2-(trifluoro-methyl)pyrimidin-5-yl]ethyl}benzamide, reference compound]	

Compound	IC50 (human P2X3 receptor) [nM]	CLblood [1]	Fmax [1]	solubility at 24 h [2] [µg/mL]	solubility compared to example 11 of WO2016/091776 A1 [2]	metabolic stability compared to example 11 of WO2016/091776 A1 [1]
{[(3R,5R)-5-Hydroxytetrahydrofuran-3-yl]oxy}-5-(5-methyl-1,3-thiazol-2-yl)-N-{(1R)-1-[2-(trifluoromethyl)pyrimidin-5-yl]ethyl}benzamide and {[(3R,5S)-5-hydroxytetrahydrofuran-3-yl]oxy}-5-(5-methyl-1,3-thiazol-2-yl)-N-{(1R)-1-[2-(trifluoromethyl)pyrimidin-5-yl]ethyl}benzamide [Example 1]	20	14.5 mL/min/kg	34%			
